The text below walks through data of ChEMBL document CHEMBL1143216, “Synthesis of 1,2,3-triazole-linked pyrrolobenzodiazepine conjugates employing 'click' chemistry: DNA-binding affinity and anticancer activity” (2008).

Each structure is given as a SMILES string.

One experiment concerns DNA. Put plainly: Binding affinity to calf thymus DNA assessed as helix melting temperature at 20 uM after 18 hrs. The experiment is classed as nucleic-acid assay. To be noted: Bos taurus.
The test system of another experiment is ZR-75-1. Put plainly: Growth inhibition of human Zr-75-1 cells by SRB method. It is filed as functional. On the technique in general: In SRB staining, fixed cells bind dye roughly in proportion to their protein.
Another experiment deals with MCF7. Put plainly: Growth inhibition of human MCF7 cells by SRB method. It is filed as functional.
Another experiment deals with KB. Put plainly: Growth inhibition of human KB cells by SRB method. The experiment is classed as functional.
Experiment [1] is described as follows: Growth inhibition of human Gurav cells by SRB method. The experiment is classed as functional.
The nature of experiment [2]: Growth inhibition of human DWD cells by SRB method. The experiment is classed as functional.
The next experiment deals with A2780. Put plainly: Growth inhibition of human A2780 cells by SRB method. It is filed as functional.
A further experiment concerns COLO 205. Put plainly: Growth inhibition of human Colo205 cells by SRB method. The experiment is classed as functional.
The subject of a further experiment is A549. Put plainly: Growth inhibition of human A549 cells by SRB method. The experiment is classed as functional.
The next experiment deals with PC-3. Put plainly: Growth inhibition of human PC3 cells by SRB method. It is filed as functional.
For another experiment, the system named is SiHa. Put plainly: Growth inhibition of human SiHa cells by SRB method. The experiment is classed as functional.

As for `COc1cc2c(cc1O)N=C[C@@H]1CCCN1C2=O`, the ΔTm (in general, the shift of the melting midpoint relative to a reference) with DNA worked out at 0.7 °C. The concentration for 50% growth inhibition (GI50) (commonly the concentration at which growth is held to half of that of the control) in the experiment with ZR-75-1 came to 2.37 µM; with MCF7, 0.17 µM; with KB, 0.17 µM; in experiment [1] it was 0.16 µM; in experiment [2] it was 1.49 µM; in the experiment with A2780 it was 0.14 µM. Moreover, the GI50 with COLO 205 was 0.11 µM; in the experiment on A549, 0.16 µM; in the experiment with PC-3, 0.2 µM; with SiHa, 0.17 µM.

Regarding `COC(=O)c1nnn([C@H]2C[C@H]3C=Nc4ccccc4C(=O)N3C2)c1C(=O)OC`, the ΔTm in the experiment with DNA amounted to 2.3 °C.

With `COC(=O)c1nnn(CCCOc2cc3c(cc2OC)C(=O)N2C[C@@H](n4nnc(C(=O)OC)c4C(=O)OC)C[C@H]2C=N3)c1C(=O)OC`, in the experiment on DNA, the thermal shift (ΔTm) turned out to be 4.5 °C. Besides, the GI50 in the experiment on MCF7 is 2.12 µM; in the experiment with KB, 1.05 µM; in experiment [1], 2.42 µM; in the experiment on A2780 it was 0.19 µM; in the experiment on COLO 205, 2.01 µM; with A549 it was 7.12 µM. It took 2.17 µM to inhibit growth in the experiment with SiHa by half (GI50).

As to `COC(=O)c1nnn(CCCCOc2cc3c(cc2OC)C(=O)N2CCC[C@H]2C=N3)c1C(=O)OC`, in the experiment with DNA, the thermal shift (ΔTm) is 0 °C. Moreover, the GI50 stood at 2.12 µM in the experiment on ZR-75-1; 30.5 µM in the experiment with MCF7; 2.36 µM in the experiment on KB; 2.39 µM in experiment [1]; 2.24 µM in [2]; 0.13 µM in the experiment on A2780. The concentration for 50% growth inhibition (GI50) with COLO 205 is 0.21 µM; in the experiment on A549, 28.7 µM; in the experiment with PC-3, 25.4 µM; in the experiment with SiHa, 2.04 µM.

For the compound `COC(=O)c1nnn([C@H]2C[C@H]3C=Nc4cc(OC)c(OC)cc4C(=O)N3C2)c1C(=O)OC`, the shift in melting temperature (ΔTm) in the experiment with DNA stood at 2.8 °C. For the same compound, the 50% growth inhibitory concentration (GI50) with ZR-75-1 was 2.47 µM; with MCF7 it was 2.17 µM; in the experiment on KB it was 26.4 µM; in experiment [1], 2.39 µM; in experiment [2] it was 2.26 µM; with A2780, 0.914 µM. Moreover, the GI50 with COLO 205 came out at 1.09 µM; in the experiment on PC-3, 2.23 µM; in the experiment with SiHa, 0.21 µM.

As to `COC(=O)c1nnn(CCCOc2cc3c(cc2OC)C(=O)N2CCC[C@H]2C=N3)c1C(=O)OC`, the ΔTm in the experiment with DNA worked out at 3.1 °C. The GI50 in the experiment with ZR-75-1 was determined as 2.53 µM; with KB, 26.6 µM; in [1] it was 25.1 µM; in experiment [2] it was 25.5 µM; in the experiment with A2780, 2.48 µM; in the experiment with COLO 205, 2.09 µM. The values for the 50% growth inhibitory concentration (GI50) in the experiment on A549, in the experiment on PC-3 and in the experiment on SiHa were 24.7 µM, 28.7 µM and 2.12 µM, respectively.

As to `COC(=O)c1nnn(CCCCOc2cc3c(cc2OC)C(=O)N2C[C@@H](n4nnc(C(=O)OC)c4C(=O)OC)C[C@H]2C=N3)c1C(=O)OC`, the thermal shift (ΔTm) in the experiment with DNA came out at 0 °C.

Turning to `COC(=O)c1nnn(CCCCCOc2cc3c(cc2OC)C(=O)N2CCC[C@H]2C=N3)c1C(=O)OC`, the ΔTm in the experiment on DNA was 3.6 °C. In addition, the GI50 in the experiment with ZR-75-1 came to 1.93 µM; in the experiment with KB, 7.19 µM; in [1] it was 26.8 µM; in experiment [2], 26 µM; in the experiment on A2780, 26 µM; in the experiment on COLO 205, 2.17 µM. In addition, the GI50 was 6.12 µM in the experiment with A549, 29.1 µM in the experiment on PC-3 and 2.15 µM in the experiment on SiHa.

For the compound `COC(=O)c1nnn(CCCCCOc2cc3c(cc2OC)C(=O)N2C[C@@H](n4nnc(C(=O)OC)c4C(=O)OC)C[C@H]2C=N3)c1C(=O)OC`, in the experiment on DNA, the ΔTm came out at 5.9 °C. Further, the 50% growth inhibitory concentration (GI50) in the experiment on ZR-75-1 is 5.51 µM; with MCF7, 2.05 µM; with KB, 1.92 µM; in experiment [1], 1.82 µM; in experiment [2], 0.15 µM; with A2780, 0.16 µM. The concentration for 50% growth inhibition (GI50) in the experiment on COLO 205 turned out to be 1.92 µM; with A549, 2.41 µM; in the experiment with PC-3, 0.17 µM; with SiHa, 0.12 µM.

On to `COc1cccc2c1C(=O)c1c(O)c3c(c(O)c1C2=O)C[C@@](O)(C(=O)CO)C[C@@H]3O[C@H]1C[C@H](N)[C@H](O)[C@H](C)O1` [DOXORUBICIN], for which the GI50 in the experiment with ZR-75-1 was 1.79 µM; with MCF7, 0.18 µM; in the experiment with KB it was 0.17 µM; in experiment [1], 0.17 µM; in experiment [2], 0.1 µM; in the experiment with A2780, 0.17 µM. Moreover, the GI50 with COLO 205 is 0.15 µM; with A549, 7.25 µM; in the experiment with PC-3, 1.81 µM; in the experiment on SiHa it was 0.18 µM.

Turning to `COC(=O)c1nnn([C@H]2C[C@H]3C=Nc4cc(OCc5ccccc5)c(OC)cc4C(=O)N3C2)c1C(=O)OC`, in the experiment on DNA, the ΔTm is 2.2 °C. The GI50 in the experiment on MCF7 came to 27.6 µM; in experiment [2], 29.7 µM; in the experiment on A2780 it was 25.8 µM; in the experiment on COLO 205 it was 27.9 µM; with SiHa, 2.04 µM.
